# PubChem BioAssay AID179 (DTP/NCI, 2004)
# Calls of active or inactive are those of the source.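 Rule for the calls: active = compounds giving half or more protection of infected cells from virus-caused growth loss, again on retest; inactive = the rest.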
# Tested on: CEM cells HIV-1 protection, formazan growth assay
# Assay: NCI AIDS Antiviral Assay
# Settings: for IC50: measured here: growth of uninfected CEM cells
# Procedure, shortened: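 Soluble formazan readout of cell growth; CEM cells ± HIV-1; 5 drug concs. ≥50% protection → retest; ≥50% again = moderately active; reproducible 100% = confirmed active.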
SMILES,EC50,IC50,outcome
O=c1c2ccccc2oc2ccccc12 (tested in a mixture with another compound),> 11 µM,0.776 µM,–
Fc1ccc(NC(=S)Nc2ccccn2)cc1,> 158 µM,129 µM,–
COC12C=CC(CC1)C(C)(C)C2O (stereo not drawn),> 200 µM,> 200 µM,inactive
O=C1NC(=O)C(COCc2ccccc2)C2=C1SCCC2 (stereo not drawn),> 200 µM,> 200 µM,–
COc1ccc(N2C(=O)C3c4[nH]c5ccccc5c4C4c5ccccc5CC4C3C2=O)cc1 (stereo not drawn),> 200 µM,> 200 µM,–
C/C(CC(=O)Nc1ccc(C)cc1)=N\NC(N)=S,> 490 µM,245 µM,–
CCC[N+](C)(C)CCCNC(=O)c1c(O)c2ccccc2[nH]c1=O,178 µM,182 µM,–
O/N=C1/CCCC/C1=C/c1ccc(Cl)cc1,–,–,inactive
O=C(O)CCCCCCCCCCCF,> 200 µM,186 µM,–
O=C1C=CC(=O)N1Nc1ccc([N+](=O)[O-])cc1[N+](=O)[O-],> 200 µM,110 µM,–
CSCc1nc2ccccc2c(C)[n+]1[O-],> 200 µM,> 200 µM,–
C[C@]12CCCC(=O)C1(O)C[C@H](C(=O)O)CC2 (stereo partly drawn),–,–,inactive
NC(N)=N/N=C/c1c(-c2ccc(Cl)cc2)nc2sc(Cl)cn12,> 20 µM,1.07 µM,–
O=C(CCCNC(=O)OCc1ccccc1)OCc1ccc2c(c1)C(=O)c1ccccc1C2=O,> 200 µM,> 200 µM,–
COc1cncn2nc(C)nc12,> 75.9 µM,> 75.9 µM,–
COc1ccccc1C=C(C#N)C#N,> 977 µM,229 µM,–
C=C1C(C2(C)C=CC(=O)OC3(C)COC(=O)CC32)C(OC=O)C(OC(=O)C(O)C(C)CC)C2(C)C(c3ccoc3)CC(OC(C)=O)C12O (stereo not drawn),–,–,inactive
CCCCCCOc1ccc(C(=O)NO)cc1,> 200 µM,13.2 µM,–
CN1C=Nc2c(ncn2C2CCC(CO)O2)C1O (stereo not drawn),> 200 µM,> 200 µM,–
CCOC(=O)c1cnc2ccc(C)cn2c1=O,–,–,inactive
Cc1ccc(-n2nc(C(OC3OC(CO)C(O)C(O)C3O)C(O)CO)c3nc4cc(C)c(C)cc4nc32)cc1 (stereo not drawn),–,–,inactive
CC(=O)N1C(=O)/C(=C\C(=O)c2ccc(Cl)cc2)c2ccccc21,> 100 µM,1.48 µM,–
Oc1ccccc1-c1n[nH]c(-c2ccccc2O)n1,> 200 µM,1.38 µM,–

SMILES,EC50,IC50,outcome
O=P1(Nc2ccccc2)NCCCO1 (stereo not drawn),> 200 µM,> 200 µM,–
CCOC(=O)CC(c1ccccc1)C(C)(C(=O)OCC)C(=O)OCC (stereo not drawn),–,–,inactive
O=C1CCCCCN1C(=O)c1ccccc1,> 1150 µM,53.7 µM,–
COC(=O)[C@H](Cc1ccccc1)NC(=O)N(CCC#N)CCCCN(CCC#N)C(=O)N[C@@H](Cc1ccccc1)C(=O)OC,> 200 µM,115 µM,–
Cc1cc(CC(=O)NCCO)n(CCO)c(=O)c1,> 977 µM,> 977 µM,–
COc1ccc(C2NC3=C(CCCC3)N2)cc1,> 155 µM,26.3 µM,–
CC(=O)[O-].[Mn+3].[O-]c1ccccc1C=NCCNCCN=Cc1ccccc1[O-],> 182 µM,10.5 µM,–
COC1(C)CC2N(C(=O)c3ccccc3)N=C(c3ccccc3)CC2(C)O1 (stereo not drawn),> 100 µM,> 100 µM,–
CC(C(=O)O)n1c(=O)ssc1=O (stereo not drawn),63.1 µM,123 µM,–
O=C1C(=O)c2ccccc2C(O)=C1C(CCc1ccccc1)C1=C(O)c2ccccc2C(=O)C1=O,> 200 µM,55 µM,–
O=C1C=CC(=O)c2c1c1c(c3c2C2c4ccccc4C3c3ccccc32)C2c3ccccc3C1c1ccccc12,> 10.2 µM,> 10.2 µM,–
O=[N+]([O-])c1cccc2nc3ccccc3c(NCCNCCO)c12,> 2 µM,0.0316 µM,–
Cc1c(C(=O)O)oc2ccc([N+](=O)[O-])cc12,–,–,inactive
Nn1c(C23CC4CC(CC(C4)C2)C3)n[nH]c1=S,182 µM,> 200 µM,–
O=c1cc(N2CCCC2)[nH]c(=O)n1Cc1ccccc1,–,–,inactive
Nc1nc2c(=O)c3ccccc3sc2s1,–,–,inactive
O=[N+]([O-])c1ccccc1S(=O)c1ccccc1 (stereo not drawn),6.76 µM,22.4 µM,–
C=CC1=C(C)C2=NC1=CC1=NC(=CC3=C(C)C4=C(O)C(C(=O)OC)C(=C5NC(=C2)C(C)C5CCC(=O)OC/C=C(\C)CCCC(C)CCCC(C)CCCC(C)C)C4=N3)C(CC)=C1C (stereo not drawn),> 100 µM,2.14 µM,–
O=c1ccc2ccc(S)cc2o1,> 200 µM,32.4 µM,–
CN1CCc2c([nH]c3ccccc23)C1,> 200 µM,> 200 µM,–
O=C(c1cccs1)N1CCCN(C(=O)c2cccs2)C1=S,> 200 µM,> 200 µM,–
O=c1ccn(/C=C(\c2ccccc2)S(=O)Cc2ccccc2)c(=S)[nH]1 (stereo not drawn),–,–,inactive
Cc1ccc(NC(=O)C(=O)CC(=O)c2c(C)n([O-])c3ccccc3[n+]2=O)cc1,> 13.2 µM,> 13.2 µM,–
